Source: ChEMBL document CHEMBL5291721, “A preclinical secondary pharmacology resource illuminates target-adverse drug reaction associations of marketed drugs” (Nat Commun, 2023)

Assays:
[1] = biological target: T1, Alpha-1A adrenergic receptor (Homo sapiens, UniProt P35348); format: functional, cell-based
T1 sequence (P35348 whole entry): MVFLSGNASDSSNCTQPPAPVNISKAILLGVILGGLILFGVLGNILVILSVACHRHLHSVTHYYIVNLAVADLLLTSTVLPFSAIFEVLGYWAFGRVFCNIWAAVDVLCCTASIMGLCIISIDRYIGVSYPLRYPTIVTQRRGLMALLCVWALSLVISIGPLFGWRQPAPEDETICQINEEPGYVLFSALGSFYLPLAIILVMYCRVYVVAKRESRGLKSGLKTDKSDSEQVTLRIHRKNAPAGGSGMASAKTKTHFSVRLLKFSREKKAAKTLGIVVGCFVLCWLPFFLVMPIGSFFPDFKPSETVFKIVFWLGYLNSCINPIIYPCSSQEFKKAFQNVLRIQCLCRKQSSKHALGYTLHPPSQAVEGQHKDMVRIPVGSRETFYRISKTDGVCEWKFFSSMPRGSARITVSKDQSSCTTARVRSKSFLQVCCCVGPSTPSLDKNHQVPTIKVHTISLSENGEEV

[2] = biological target: Cannabinoid receptor 1 (Homo sapiens, UniProt P21554); format: functional, cell-based
[3] = biological target: Neuronal acetylcholine receptor subunit alpha-4 (Homo sapiens, UniProt P43681)
[4] = biological target: Gamma-aminobutyric acid receptor subunit alpha-1 (Rattus norvegicus, UniProt P62813)
[5] = biological target: Kappa-type opioid receptor (Homo sapiens, UniProt P41145)
[6] = biological target: T2, Muscarinic acetylcholine receptor M2 (Homo sapiens, UniProt P08172); format: functional, cell-based
T2 sequence (P08172 whole entry): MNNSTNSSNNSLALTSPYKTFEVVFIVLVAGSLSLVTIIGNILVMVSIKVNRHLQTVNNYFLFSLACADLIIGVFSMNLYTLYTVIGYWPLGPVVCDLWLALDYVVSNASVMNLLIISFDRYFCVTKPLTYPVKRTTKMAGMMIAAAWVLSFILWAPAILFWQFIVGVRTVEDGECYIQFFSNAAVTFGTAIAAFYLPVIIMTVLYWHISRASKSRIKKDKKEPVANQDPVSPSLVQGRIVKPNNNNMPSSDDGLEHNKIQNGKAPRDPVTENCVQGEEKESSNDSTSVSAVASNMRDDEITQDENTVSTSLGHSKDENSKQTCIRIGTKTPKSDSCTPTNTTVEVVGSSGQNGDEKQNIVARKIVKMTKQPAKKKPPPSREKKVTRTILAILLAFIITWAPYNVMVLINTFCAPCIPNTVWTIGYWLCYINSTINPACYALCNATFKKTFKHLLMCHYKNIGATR

[7] = biological target: D(3) dopamine receptor (Homo sapiens, UniProt P35462)
[8] = biological target: Histamine H2 receptor (Homo sapiens, UniProt P25021); format: functional, cell-based
[9] = biological target: 5-hydroxytryptamine receptor 2B (Homo sapiens, UniProt P41595); format: functional, cell-based
[10] = biological target: T3, Thromboxane A2 receptor (Homo sapiens, UniProt P21731); format: functional, cell-based
T3 sequence (P21731 whole entry): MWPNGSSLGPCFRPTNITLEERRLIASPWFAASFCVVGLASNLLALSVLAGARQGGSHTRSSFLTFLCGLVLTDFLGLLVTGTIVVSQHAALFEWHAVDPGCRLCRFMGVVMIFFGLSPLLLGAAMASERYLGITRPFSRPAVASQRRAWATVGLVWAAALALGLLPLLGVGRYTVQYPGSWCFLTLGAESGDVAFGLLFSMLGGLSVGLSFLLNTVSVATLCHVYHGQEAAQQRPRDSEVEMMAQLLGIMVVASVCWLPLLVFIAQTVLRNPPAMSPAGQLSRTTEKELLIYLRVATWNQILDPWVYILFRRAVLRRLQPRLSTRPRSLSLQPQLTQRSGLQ

[11] = biological target: T4, 5-hydroxytryptamine receptor 1A (Homo sapiens, UniProt P08908)
T4 sequence (P08908 whole entry): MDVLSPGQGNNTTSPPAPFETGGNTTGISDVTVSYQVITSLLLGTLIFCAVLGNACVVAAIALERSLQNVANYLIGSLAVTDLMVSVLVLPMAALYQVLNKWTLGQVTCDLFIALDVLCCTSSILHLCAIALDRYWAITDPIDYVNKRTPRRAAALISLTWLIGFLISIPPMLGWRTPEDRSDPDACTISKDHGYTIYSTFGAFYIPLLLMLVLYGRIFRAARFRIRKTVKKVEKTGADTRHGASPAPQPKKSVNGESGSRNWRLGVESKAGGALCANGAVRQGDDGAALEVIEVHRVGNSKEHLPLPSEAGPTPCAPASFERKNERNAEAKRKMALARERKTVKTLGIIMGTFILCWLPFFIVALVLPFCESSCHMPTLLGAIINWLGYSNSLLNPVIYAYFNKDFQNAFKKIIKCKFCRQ

[12] = biological target: Histamine H3 receptor (Homo sapiens, UniProt Q9Y5N1)
[13] = biological target: Sodium-dependent noradrenaline transporter (Homo sapiens, UniProt P23975)
[14] = biological target: T5, Alpha-2A adrenergic receptor (Homo sapiens, UniProt P08913)
T5 sequence (P08913 whole entry): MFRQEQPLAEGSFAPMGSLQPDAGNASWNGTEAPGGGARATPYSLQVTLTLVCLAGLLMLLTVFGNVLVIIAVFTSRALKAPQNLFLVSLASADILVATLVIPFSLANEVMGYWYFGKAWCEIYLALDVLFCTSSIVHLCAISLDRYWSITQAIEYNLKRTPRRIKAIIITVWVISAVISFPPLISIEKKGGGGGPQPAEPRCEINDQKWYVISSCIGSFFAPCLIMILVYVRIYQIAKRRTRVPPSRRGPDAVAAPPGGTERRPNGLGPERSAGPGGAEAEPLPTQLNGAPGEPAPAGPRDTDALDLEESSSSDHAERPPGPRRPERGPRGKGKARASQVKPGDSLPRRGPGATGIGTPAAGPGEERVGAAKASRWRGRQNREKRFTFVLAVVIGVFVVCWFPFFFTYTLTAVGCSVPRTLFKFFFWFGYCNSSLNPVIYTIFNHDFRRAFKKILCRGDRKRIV

[15] = biological target: T2, Muscarinic acetylcholine receptor M2
Further: assay procedure not described here.

Chain of Neuronal acetylcholine receptor subunit alpha-4 (P43681 whole entry): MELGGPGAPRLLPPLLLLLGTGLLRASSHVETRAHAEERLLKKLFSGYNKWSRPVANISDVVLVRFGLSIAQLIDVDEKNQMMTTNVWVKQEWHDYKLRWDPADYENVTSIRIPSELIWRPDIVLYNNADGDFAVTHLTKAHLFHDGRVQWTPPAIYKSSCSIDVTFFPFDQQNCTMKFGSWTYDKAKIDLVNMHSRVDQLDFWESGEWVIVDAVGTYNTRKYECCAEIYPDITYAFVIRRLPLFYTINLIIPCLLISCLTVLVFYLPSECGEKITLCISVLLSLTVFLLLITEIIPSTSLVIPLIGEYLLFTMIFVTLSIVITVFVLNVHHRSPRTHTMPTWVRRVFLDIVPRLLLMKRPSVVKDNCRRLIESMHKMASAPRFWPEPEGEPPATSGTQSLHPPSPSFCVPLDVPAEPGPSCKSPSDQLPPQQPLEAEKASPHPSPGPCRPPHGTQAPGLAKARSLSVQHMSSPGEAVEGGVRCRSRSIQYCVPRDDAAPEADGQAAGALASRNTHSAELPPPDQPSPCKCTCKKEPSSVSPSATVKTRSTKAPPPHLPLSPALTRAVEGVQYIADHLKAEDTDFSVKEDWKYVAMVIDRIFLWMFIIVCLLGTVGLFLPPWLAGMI
Chain of D(3) dopamine receptor (P35462 whole entry): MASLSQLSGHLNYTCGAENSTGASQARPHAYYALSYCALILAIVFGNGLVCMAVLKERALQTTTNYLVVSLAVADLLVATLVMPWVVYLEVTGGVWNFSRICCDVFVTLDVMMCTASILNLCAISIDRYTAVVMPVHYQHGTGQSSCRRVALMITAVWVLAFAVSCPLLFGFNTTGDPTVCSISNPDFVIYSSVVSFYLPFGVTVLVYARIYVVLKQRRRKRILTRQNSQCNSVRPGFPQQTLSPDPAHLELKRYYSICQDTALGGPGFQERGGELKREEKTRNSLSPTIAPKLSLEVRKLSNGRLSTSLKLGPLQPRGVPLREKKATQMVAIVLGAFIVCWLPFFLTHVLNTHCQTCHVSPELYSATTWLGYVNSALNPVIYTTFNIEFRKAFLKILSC
Chain of Gamma-aminobutyric acid receptor subunit alpha-1 (P62813 whole entry): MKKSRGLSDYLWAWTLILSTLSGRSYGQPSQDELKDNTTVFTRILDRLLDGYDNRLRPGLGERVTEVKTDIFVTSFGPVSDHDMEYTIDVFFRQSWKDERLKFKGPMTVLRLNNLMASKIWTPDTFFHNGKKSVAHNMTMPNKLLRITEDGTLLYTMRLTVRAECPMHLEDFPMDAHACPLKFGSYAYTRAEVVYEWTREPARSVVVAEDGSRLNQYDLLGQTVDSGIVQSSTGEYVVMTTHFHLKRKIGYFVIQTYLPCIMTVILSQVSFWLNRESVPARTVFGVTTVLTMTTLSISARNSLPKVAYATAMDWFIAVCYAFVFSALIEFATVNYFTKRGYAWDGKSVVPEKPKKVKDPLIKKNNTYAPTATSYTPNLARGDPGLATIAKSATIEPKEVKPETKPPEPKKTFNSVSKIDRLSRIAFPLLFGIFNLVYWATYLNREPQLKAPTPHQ
Chain of Histamine H2 receptor (P25021 whole entry): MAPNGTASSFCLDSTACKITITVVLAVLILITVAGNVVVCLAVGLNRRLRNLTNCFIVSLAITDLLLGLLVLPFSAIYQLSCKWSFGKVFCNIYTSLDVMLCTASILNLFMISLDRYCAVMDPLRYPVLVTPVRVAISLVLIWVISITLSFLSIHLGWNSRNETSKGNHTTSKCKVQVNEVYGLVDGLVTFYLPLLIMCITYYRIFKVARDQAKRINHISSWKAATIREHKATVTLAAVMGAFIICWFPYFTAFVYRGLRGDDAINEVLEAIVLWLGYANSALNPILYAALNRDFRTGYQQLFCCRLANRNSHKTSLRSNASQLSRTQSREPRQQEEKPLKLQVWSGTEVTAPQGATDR
Chain of Kappa-type opioid receptor (P41145 whole entry): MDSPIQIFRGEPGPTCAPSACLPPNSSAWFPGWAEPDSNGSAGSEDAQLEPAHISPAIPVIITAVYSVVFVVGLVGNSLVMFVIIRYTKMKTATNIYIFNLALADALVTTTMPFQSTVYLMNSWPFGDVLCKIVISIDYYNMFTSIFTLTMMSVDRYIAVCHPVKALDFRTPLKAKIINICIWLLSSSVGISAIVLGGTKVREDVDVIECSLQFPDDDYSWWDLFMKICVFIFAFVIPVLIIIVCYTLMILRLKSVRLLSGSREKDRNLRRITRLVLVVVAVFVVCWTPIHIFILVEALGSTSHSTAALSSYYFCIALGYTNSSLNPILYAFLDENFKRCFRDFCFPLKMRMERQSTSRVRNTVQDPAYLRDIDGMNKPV
Chain of Cannabinoid receptor 1 (P21554 whole entry): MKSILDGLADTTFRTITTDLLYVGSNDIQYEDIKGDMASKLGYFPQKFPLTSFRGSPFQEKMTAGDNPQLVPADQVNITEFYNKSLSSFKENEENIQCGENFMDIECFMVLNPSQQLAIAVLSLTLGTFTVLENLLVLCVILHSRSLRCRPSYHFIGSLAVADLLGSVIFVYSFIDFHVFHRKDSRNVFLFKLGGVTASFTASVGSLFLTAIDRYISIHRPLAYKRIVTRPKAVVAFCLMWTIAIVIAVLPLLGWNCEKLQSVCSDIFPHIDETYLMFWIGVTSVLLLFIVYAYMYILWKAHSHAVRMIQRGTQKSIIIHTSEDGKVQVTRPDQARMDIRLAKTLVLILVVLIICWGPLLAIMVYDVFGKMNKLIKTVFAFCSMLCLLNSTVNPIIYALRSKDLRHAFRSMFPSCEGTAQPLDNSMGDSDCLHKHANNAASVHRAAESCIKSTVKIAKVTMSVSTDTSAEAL
Chain of 5-hydroxytryptamine receptor 2B (P41595 whole entry): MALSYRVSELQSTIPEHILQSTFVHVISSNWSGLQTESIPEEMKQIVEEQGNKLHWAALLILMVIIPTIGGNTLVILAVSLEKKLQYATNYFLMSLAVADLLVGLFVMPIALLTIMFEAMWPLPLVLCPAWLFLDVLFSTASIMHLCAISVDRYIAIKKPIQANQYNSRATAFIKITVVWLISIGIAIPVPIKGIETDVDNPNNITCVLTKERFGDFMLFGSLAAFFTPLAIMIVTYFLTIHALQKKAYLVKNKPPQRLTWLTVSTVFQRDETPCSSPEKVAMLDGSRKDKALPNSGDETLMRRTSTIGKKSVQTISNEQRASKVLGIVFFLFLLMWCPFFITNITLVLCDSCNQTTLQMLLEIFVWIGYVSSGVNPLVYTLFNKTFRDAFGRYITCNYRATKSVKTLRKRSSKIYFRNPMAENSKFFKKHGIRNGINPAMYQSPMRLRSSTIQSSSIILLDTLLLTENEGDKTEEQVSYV
Chain of Sodium-dependent noradrenaline transporter (P23975 whole entry): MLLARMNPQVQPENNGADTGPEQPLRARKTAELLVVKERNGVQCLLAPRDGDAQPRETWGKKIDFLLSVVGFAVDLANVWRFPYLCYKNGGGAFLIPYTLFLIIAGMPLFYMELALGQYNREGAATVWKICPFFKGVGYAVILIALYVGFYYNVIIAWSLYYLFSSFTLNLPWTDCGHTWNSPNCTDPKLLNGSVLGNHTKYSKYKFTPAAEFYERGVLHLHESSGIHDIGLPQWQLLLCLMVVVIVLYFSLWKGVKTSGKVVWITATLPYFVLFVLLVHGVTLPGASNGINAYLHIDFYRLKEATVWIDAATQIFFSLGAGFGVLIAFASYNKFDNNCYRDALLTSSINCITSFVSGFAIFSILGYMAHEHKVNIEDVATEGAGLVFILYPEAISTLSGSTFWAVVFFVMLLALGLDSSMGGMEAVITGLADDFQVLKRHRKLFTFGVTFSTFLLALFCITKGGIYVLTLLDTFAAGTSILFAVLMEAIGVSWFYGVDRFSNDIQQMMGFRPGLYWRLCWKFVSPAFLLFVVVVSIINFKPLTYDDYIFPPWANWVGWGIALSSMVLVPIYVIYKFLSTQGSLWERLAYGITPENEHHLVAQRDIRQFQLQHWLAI
Chain of Histamine H3 receptor (Q9Y5N1 whole entry): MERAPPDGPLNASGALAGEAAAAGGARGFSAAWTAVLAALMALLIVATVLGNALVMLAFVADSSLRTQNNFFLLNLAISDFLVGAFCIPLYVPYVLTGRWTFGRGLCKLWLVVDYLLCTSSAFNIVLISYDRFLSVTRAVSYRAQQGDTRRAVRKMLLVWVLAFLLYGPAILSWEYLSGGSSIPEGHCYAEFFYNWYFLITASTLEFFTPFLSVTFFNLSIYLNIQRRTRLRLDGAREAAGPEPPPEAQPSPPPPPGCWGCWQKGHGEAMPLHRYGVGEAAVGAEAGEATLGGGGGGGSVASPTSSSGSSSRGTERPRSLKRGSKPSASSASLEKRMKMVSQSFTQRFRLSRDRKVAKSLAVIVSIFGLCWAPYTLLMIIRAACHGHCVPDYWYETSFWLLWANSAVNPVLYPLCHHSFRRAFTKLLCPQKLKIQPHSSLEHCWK

Row | Compound | AC50 [1] | AC50 [2] | AC50 [3] | AC50 [4] | AC50 [5] | AC50 [6] | AC50 [7] | AC50 [8] | AC50 [9] | AC50 [10] | AC50 [11] | AC50 [12] | AC50 [13] | AC50 [14] | AC50 [15]
1 | CCOc1nc2cccc(C(=O)O)c2n1Cc1ccc(-c2ccccc2-c2nnn[nH]2)cc1 | > 30 µM | > 30 µM | > 10 µM | > 10 µM | > 10 µM | > 30 µM | > 30 µM | > 10 µM |  |  |  |  |  |  | 
2 | CCOc1cc([C@@H](CS(C)(=O)=O)N2C(=O)c3cccc(NC(C)=O)c3C2=O)ccc1OC | > 30 µM | > 30 µM | > 30 µM |  |  | > 30 µM | > 30 µM |  |  |  |  |  |  |  | 
3 | CC(=O)Nc1ccc(CC(=O)O)cc1 [ACTARIT] | > 30 µM | > 30 µM | > 30 µM | > 30 µM | > 30 µM | > 30 µM | > 30 µM | > 30 µM |  |  |  |  |  |  | 
4 | CC(C(=O)O)c1ccc2oc(-c3ccc(Cl)cc3)nc2c1 (stereo not drawn) [BENOXAPROFEN] | 23 µM | > 30 µM | > 30 µM | > 30 µM | > 30 µM | > 30 µM | > 30 µM | > 30 µM |  |  |  |  |  |  | 
5 | Nc1c(CC(=O)O)cccc1C(=O)c1ccc(Br)cc1 [BROMFENAC] |  |  |  |  |  |  |  |  | > 30 µM | > 30 µM | > 30 µM | > 30 µM | > 30 µM | > 30 µM | > 30 µM
6 | CC1(C)S[C@@H]2[C@H](NC(=O)C(C(=O)O)c3ccccc3)C(=O)N2[C@H]1C(=O)O (stereo partly drawn) [CARBENICILLIN] | > 30 µM | > 30 µM | > 30 µM |  | > 30 µM | > 30 µM | > 30 µM | > 30 µM |  |  |  |  |  |  | 
7 | Cc1nnc(SCC2=C(C(=O)O)N3C(=O)[C@@H](NC(=O)Cn4cnnn4)[C@H]3SC2)s1 [CEFAZOLIN] | > 300 µM | > 300 µM | > 300 µM |  | > 30 µM | > 300 µM | > 300 µM | > 30 µM |  |  |  |  |  |  | 
8 | CC=CC1=C(C(=O)O)N2C(=O)[C@@H](NC(=O)[C@H](N)c3ccc(O)cc3)[C@H]2SC1 [CEFPROZIL] | > 30 µM |  | > 30 µM | > 30 µM | > 30 µM | > 30 µM | 26 µM | > 30 µM |  |  |  |  |  |  | 
9 | CC(C)(O/N=C(\C(=O)N[C@@H]1C(=O)N2C(C(=O)[O-])=C(C[n+]3ccccc3)CS[C@H]12)c1csc(N)n1)C(=O)O [CEFTAZIDIME] | > 300 µM | > 300 µM | > 300 µM |  | > 30 µM | > 300 µM | > 300 µM | > 30 µM |  |  |  |  |  |  | 
10 | Clc1ccc(Cn2c(CN3CCCC3)nc3ccccc32)cc1 [CLEMIZOLE] | 13 µM | > 30 µM | > 10 µM |  |  | > 10 µM | > 30 µM |  |  |  |  |  |  |  | 
11 | CCC(=O)O[C@]1(C(=O)CCl)[C@@H](C)C[C@H]2[C@@H]3CCC4=CC(=O)C=C[C@]4(C)[C@@]3(F)[C@@H](O)C[C@@]21C [CLOBETASOL PROPIONATE] | > 30 µM | > 30 µM |  | > 30 µM | > 30 µM | > 30 µM | > 30 µM | > 30 µM |  |  |  |  |  |  | 
12 | Cc1nc(Nc2ncc(C(=O)Nc3c(C)cccc3Cl)s2)cc(N2CCN(CCO)CC2)n1 [DASATINIB] | 10 µM | > 30 µM | > 30 µM |  | > 10 µM | > 30 µM | > 30 µM | > 30 µM |  |  |  |  |  |  | 
13 | CC(C)Cc1ccc([C@H](C)C(=O)O)cc1 [DEXIBUPROFEN] | > 30 µM | > 30 µM | > 30 µM |  |  | > 30 µM | > 30 µM |  |  |  |  |  |  |  | 
14 | CNC[C@H](O)c1ccc(O)c(O)c1 [EPINEPHRINE] |  | > 30 µM | > 30 µM |  |  | > 30 µM | 8.4 µM |  |  |  |  |  |  |  | 
15 | Cc1onc(-c2c(F)cccc2Cl)c1C(=O)N[C@@H]1C(=O)N2[C@@H]1SC(C)(C)[C@@H]2C(=O)O [FLOXACILLIN] | > 30 µM | > 30 µM | > 30 µM |  |  | > 30 µM | > 30 µM |  |  |  |  |  |  |  | 
16 | COc1ccccc1OC1(C)OC(=O)c2ccccc2O1 (stereo not drawn) [GUAIMESAL] |  |  | > 30 µM |  |  |  |  |  | > 30 µM | > 30 µM | > 30 µM | > 30 µM | > 30 µM | > 30 µM | > 30 µM
17 | CCCCCCCN(CC)CCCC(O)c1ccc(NS(C)(=O)=O)cc1 (stereo not drawn) [IBUTILIDE] | > 30 µM |  | > 30 µM | > 30 µM | > 30 µM | 22 µM | 4.3 µM | > 30 µM |  |  |  |  |  |  | 
18 | CC[C@H](C)C(=O)O[C@H]1C[C@@H](C)C=C2C=C[C@H](C)[C@H](CC[C@@H]3C[C@@H](O)CC(=O)O3)[C@H]21 [LOVASTATIN] |  | > 30 µM | > 10 µM | > 10 µM | > 10 µM | > 10 µM | > 10 µM | > 10 µM |  |  |  |  |  |  | 
19 | CC[C@@H](CO)NC(=O)[C@@H]1C=C2c3cccc4c3c(cn4C)C[C@H]2N(C)C1 [METHYSERGIDE] |  | > 30 µM | > 10 µM | > 10 µM | > 10 µM | > 30 µM | 0.42 µM | 2.78 µM |  |  |  |  |  |  | 
20 | CNC(=C[N+](=O)[O-])NCCSCc1csc(CN(C)C)n1 [NIZATIDINE] |  |  | > 10 µM | > 10 µM | > 10 µM | > 10 µM | > 30 µM | > 10 µM |  |  |  |  |  |  | 
21 | CCCc1cc(=O)[nH]c(=S)[nH]1 [PROPYLTHIOURACIL] |  |  | > 10 µM | > 10 µM | > 10 µM | > 10 µM | > 30 µM | > 10 µM |  |  |  |  |  |  | 
22 | S=P(N1CC1)(N1CC1)N1CC1 [THIOTEPA] | 0.044 µM | > 30 µM | > 30 µM |  |  |  | 9.9 µM |  |  |  |  |  |  |  | 
23 | COc1cc(C(=O)NS(=O)(=O)c2ccccc2C)ccc1Cc1cn(C)c2ccc(NC(=O)OC3CCCC3)cc12 [ZAFIRLUKAST] | 5.9 µM | 30 µM | > 10 µM | > 10 µM | 6.32 µM |  |  | > 10 µM |  |  |  |  |  |  | 
